Source: paper PMC4852132 (Biochemistry, 2016)
Several values for one entry are separate records, joined by “and”; a condition that tells them apart may be missing. Identical values can stand only once. Like-named read-outs stand apart in the source and are kept apart here.

Key:
DXPS = DXPS (Escherichia coli, UniProt P77488); settings: apo-DXPS with 0.10 mM cofactor
OGDHc-h = target: T1, OGDHc-h (Homo sapiens, UniProt Q02218); test: Overall OGDHc-h activity by formation of NADH; type: biochemical
T1 sequence (Q02218 41-1023): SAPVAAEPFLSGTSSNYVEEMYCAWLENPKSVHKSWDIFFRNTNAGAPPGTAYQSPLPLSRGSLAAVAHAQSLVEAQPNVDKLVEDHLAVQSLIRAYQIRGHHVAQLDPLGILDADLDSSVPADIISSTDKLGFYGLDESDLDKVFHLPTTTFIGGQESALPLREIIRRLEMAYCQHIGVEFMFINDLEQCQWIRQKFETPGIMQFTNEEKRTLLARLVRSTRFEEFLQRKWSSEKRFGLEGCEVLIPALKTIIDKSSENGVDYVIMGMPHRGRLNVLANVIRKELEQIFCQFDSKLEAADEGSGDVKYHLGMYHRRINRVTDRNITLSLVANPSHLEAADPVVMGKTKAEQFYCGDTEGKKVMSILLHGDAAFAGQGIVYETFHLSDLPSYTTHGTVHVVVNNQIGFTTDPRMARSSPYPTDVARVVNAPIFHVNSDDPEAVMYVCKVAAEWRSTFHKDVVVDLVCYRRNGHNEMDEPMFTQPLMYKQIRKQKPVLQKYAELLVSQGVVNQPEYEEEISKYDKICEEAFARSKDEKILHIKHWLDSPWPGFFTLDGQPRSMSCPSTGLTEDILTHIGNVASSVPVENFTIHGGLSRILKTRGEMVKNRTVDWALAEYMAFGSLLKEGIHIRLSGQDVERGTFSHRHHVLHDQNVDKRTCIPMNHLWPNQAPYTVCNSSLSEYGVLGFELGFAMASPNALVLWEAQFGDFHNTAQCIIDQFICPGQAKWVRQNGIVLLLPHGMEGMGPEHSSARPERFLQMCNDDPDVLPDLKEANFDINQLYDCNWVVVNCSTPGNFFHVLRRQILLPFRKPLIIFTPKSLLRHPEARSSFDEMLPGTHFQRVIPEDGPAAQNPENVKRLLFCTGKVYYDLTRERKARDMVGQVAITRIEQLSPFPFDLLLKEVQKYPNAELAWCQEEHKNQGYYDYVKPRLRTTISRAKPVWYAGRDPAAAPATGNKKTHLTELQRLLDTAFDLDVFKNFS
T1 sequence (P36957 68-453 partner): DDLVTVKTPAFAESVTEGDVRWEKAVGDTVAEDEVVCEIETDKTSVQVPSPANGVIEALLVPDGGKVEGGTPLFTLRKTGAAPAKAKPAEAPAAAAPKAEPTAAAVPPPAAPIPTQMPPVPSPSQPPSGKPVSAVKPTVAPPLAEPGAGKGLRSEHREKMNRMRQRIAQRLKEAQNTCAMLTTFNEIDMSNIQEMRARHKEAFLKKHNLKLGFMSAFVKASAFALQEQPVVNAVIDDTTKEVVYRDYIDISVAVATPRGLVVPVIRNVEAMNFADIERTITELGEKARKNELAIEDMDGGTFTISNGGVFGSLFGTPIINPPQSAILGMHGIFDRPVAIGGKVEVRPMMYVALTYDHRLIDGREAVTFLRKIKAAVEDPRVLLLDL
T1 sequence (P09622 36-509 partner): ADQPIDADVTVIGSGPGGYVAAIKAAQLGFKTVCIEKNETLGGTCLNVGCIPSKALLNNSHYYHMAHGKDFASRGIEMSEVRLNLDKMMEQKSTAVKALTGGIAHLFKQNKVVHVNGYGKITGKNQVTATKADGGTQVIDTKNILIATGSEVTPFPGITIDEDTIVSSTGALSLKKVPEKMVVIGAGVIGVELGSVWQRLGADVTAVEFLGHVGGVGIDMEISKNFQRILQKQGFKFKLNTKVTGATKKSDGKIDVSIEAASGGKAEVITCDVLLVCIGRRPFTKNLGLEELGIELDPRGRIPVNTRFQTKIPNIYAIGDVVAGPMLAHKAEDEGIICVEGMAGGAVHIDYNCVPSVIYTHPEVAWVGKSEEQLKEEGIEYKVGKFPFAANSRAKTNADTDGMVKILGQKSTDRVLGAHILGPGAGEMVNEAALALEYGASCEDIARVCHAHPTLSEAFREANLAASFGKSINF

E1p-ec = E1p-ec (Escherichia coli, UniProt P0AFG8); settings: cofactor 0.2 mM
E1p-h [1] = target: T2, E1p-h (Homo sapiens, UniProt P08559+P11177); test: MS reductive acetylation of the E2p-h lipoyl domain; type: biochemical; settings: E1p-h with cofactor and pyruvate
T2 sequence (P08559 30-390): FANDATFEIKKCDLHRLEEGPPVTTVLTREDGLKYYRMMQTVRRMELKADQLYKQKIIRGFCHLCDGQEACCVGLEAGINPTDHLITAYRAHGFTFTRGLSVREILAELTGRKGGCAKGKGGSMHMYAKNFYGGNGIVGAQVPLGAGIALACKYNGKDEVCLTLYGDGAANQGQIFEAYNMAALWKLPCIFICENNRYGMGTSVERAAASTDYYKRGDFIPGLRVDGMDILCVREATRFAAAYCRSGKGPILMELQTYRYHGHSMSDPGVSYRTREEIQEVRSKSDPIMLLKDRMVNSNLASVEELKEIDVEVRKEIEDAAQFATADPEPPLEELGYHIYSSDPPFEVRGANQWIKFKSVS
T2 sequence (P11177 31-359): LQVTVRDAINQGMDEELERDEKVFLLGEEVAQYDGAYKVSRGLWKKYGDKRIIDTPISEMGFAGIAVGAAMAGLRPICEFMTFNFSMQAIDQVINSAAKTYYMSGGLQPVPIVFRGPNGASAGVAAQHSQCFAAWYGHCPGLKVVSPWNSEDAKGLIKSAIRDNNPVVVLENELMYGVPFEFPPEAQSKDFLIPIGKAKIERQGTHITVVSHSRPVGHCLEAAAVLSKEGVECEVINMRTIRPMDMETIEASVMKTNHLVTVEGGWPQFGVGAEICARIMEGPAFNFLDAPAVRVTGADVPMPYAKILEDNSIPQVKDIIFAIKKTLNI

E1p-h [2] = target: T2, E1p-h; test: E1p-h specific activity by rate of reduction of DCPIP; type: biochemical; settings: for E1p-h specific activity, percent of that with ThDP: cofactor 0.2 or 0.5 mM
E1p-h [3] = target: T2, E1p-h; test: Quenching of intrinsic fluorescence of E1p-h; type: binding
OGDHc-ec = OGDHc-ec (Escherichia coli, UniProt P0AFG3); test: Overall OGDHc-ec activity by formation of NADH; type: biochemical
PDHc-ec = PDHc-ec (Escherichia coli, UniProt P0AFG8); settings: cofactor 0.2 mM in assay, no ThDP present for MeOThDP

Row | Structure (SMILES) | DXPS activity, percent of that with ThDP (DXPS) | DXPS activity (DXPS; 37 °C, independent preparations) | overall OGDHc activity, percent of that with ThDP (OGDHc-h) [%] | E1p-ec specific activity, percent of that with ThDP (E1p-ec) [%] | rate of reductive acetylation of LD1-h (E1p-h [1]) [s⁻¹] | E1p-h specific activity (E1p-h [2]; cofactor 0.2 and 0.5 mM, E1p-h alone, model reaction) | E1p-h specific activity, percent of that with ThDP (E1p-h [2]) [%] | percent of E1p-h fluorescence quenched (E1p-h [3]) [%] | Kd (E1p-h [3]; read-out: Kd from quenching of E1p-h fluorescence) [µM] | overall OGDHc activity, percent of that with ThDP (OGDHc-ec; listed as MeOThP) | overall PDHc-ec activity, percent of that with ThDP (PDHc-ec) | E1p-ec specific activity (E1p-ec; E1p-ec alone, model reaction) | Kd (E1p-h [3]) [µM] | overall OGDHc activity, percent of that with ThDP (OGDHc-ec) [%]
1 | COc1ncc(C[n+]2csc(CCOP(=O)(O)OP(=O)(O)O)c2C)c(N)n1 [MeOThDP, 2′-methoxythiamin diphosphate] | 9–14% and 8.8% and 14% and ~ 8.8% and ~ 14% | 0.26 ± 0.04 µmol min^−1 (mg of DXPS)^−1 and 0.30 ± 0.01 µmol min^−1 (mg of DXPS)^−1 | 64 | ~19 | 6.38 | 0.017 ± 0.01 µmol min^−1 (mg of E1p-h)^−1 | ~49 | 4 | 16.2 ± 4.5 | 42% and 69% | 8.6% and 11% and 5.9% | – | – | –
2 | Cc1ncc(C[n+]2csc(CCOP(=O)([O-])OP(=O)(O)O)c2C)c(N)n1 [ThDP, thiamin diphosphate] | 100% | – | 100 | 100 | 10.25 | – | 100 | 19 | – | – | 100% | 0.36 ± 0.01 µmol min^−1 (mg of E1p-ec)^−1 | 7.2 ± 0.5 | 100
